Patent US12187705B2, “Heteroaryl-triazole and heteroaryl-tetrazole compounds as pesticides” (Bayer Aktiengesellschaft, priority 2018, dated 2025)

Experiments:
Format in all cases: in vivo
Ctenocephalides felis [1] = experiment: Ctenocephalides felis in-vitro contact test adult cat flea; settings: Ctenocephalides felis; 5 μg/cm^2 (=500 g/ha), after 48 hours; read-out: efficacy (fleas dead or moribund)
Experimental: Ctenocephalides felis—In-Vitro Contact Test Adult Cat Flea
9 mg compound is solved in 1 ml acetone and diluted with acetone to the desired concentration. 250 μl of the test solution is filled in 25 ml glass test tubes and homogeneously distributed on the inner walls by rotation and tilting on a shaking device (2 h at 30 rpm). With a compound concentration of 900 ppm, an inner surface of 44.7 cm^2 and a homogeneous distribution, a dose of 5 μg/cm^2 is achieved.
After the solvent has evaporated, each test tube is filled with 5-10 adult cat fleas (Ctenocephalides felis), closed with a perforated lid and incubated in a lying position at room temperature and relative humidity. After 48 hours efficacy is determined. The fleas are patted on the ground of the tubes and are incubated on a heating plate at 45-50° C. for at most 5 minutes. Immotile or uncoordinated moving fleas, which are not able to escape the heat by climbing upwards, are marked as dead or moribund.
An efficacy of 100% means all fleas are dead or moribund; 0% means no fleas are dead or moribund.

Boophilus microplus = Boophilus microplus injection test; settings: Rhipicephalus microplus, 168 h, 20 μg/animal, egg deposition after 7 days, read-out: efficacy (infertile eggs)
Experimental: Boophilus microplus—Injection Test
(§1) Solvent: dimethyl sulfoxide
To produce a suitable preparation of active compound, 10 mg of active compound are dissolved in 0.5 ml solvent, and the concentrate is diluted with solvent to the desired concentration.
Five adult engorged female ticks (Boophilus microplus) are injected with 1 μl compound solution into the abdomen. The ticks are transferred into replica plates and incubated in a climate chamber.
After 7 days egg deposition of fertile eggs is monitored. Eggs where fertility is not visible are stored in a climate chamber till hatching after about 42 days. An efficacy of 100% means all eggs are infertile; 0% means all eggs are fertile.

Ctenocephalides felis [2] = experiment: Ctenocephalides felis oral test; settings: Ctenocephalides felis, in Bos taurus, po, 48 h
Experimental: Ctenocephalides felis—Oral Test
as §1
To produce a suitable preparation of active compound, 10 mg of active compound are dissolved in 0.5 ml solvent, and the concentrate is diluted with cattle blood to the desired concentration.
Approximately 20 adult unfed cat fleas (Ctenocephalides felis) are placed in flea chambers. The blood chamber, sealed with parafilm on the bottom, are filled with cattle blood supplied with compound solution and placed on the gauze covered top of the flea chamber, so that the fleas are able to suck the blood. The blood chamber is heated to 37° C. whereas the flea chamber is kept at room temperature.
After 2 days mortality in % is determined. 100% means all the fleas have been killed; 0% means none of the fleas have been killed.

Diabrotica balteata = Diabrotica balteata spray test; settings: Diabrotica balteata, 168 h; 160 μg/well, wheat seeds, after 7 days; read-out: efficacy (seedlings grown)
Experimental: Diabrotica balteata—Spray Test
(§2) To produce a suitable preparation of active compound, 1 part by weight of active compound is mixed with the stated amount of solvent, and the concentrate is diluted with water, containing an emulsifier concentration of 1000 ppm, to the desired concentration. Further test concentrations are prepared by dilution with emulsifier containing water.
Soaked wheat seeds (Triticum aestivum) are placed in a multiple well plate filled with agar and some water and are incubated for 1 day to germinate (5 seeds per well). The germinated wheat seeds are sprayed with a test solution containing the desired concentration of the active ingredient. Afterwards each unit is infected with 10-20 larvae of the banded cucumber beetle (Diabrotica balteata).
After 7 days efficacy in % is determined. 100% means all the seedlings have grown up like in the untreated, uninfected control; 0% means none of the seedlings have grown.

Myzus persicae [3] = experiment: Myzus persicae oral test; settings: 120 h
Experimental: To produce a suitable preparation of active compound, 1 part by weight of active compound is mixed with the stated amount of solvent, and the concentrate is diluted with water to the desired concentration.
50 μl compound solution is filled in microtiter plates and 150 μl IPL41 insect medium (33%+15% sugar) is added to obtain a total volume of 200 μl per well. Afterwards the plates are sealed with parafilm through which a mixed population of the green peach aphid (Myzus persicae) can suck on the compound preparation.
(§3) After 5 days mortality in % is determined. 100% means all aphids have been killed and 0% means none of the aphids have been killed.

Myzus persicae [4] = experiment: Myzus persicae spray test; settings: in Brassica rapa, foliar, 120 h
Experimental: Myzus persicae—Spray Test
as §2, with “solvents” for “solvent,”, “and” for “and the concentrate”
Chinese cabbage (Brassica pekinensis) leaf disks infected with all instars of the green peach aphid (Myzus persicae), are sprayed with a preparation of the active ingredient of the desired concentration.
as §3

Nezara viridula = Nezara viridula spray test; settings: in Hordeum vulgare, 96 h
Experimental: Nezara viridula—Spray Test
as §2
Barley plants (Hordeum vulgare) infested with larvae of the southern green stink bug (Nezara viridula) are sprayed with a test solution containing the desired concentration of the active ingredient.
After 4 days mortality in % is determined. 100% means all the stink bugs have been killed; 0% means none of the stink bugs have been killed.

Nilaparvata lugens = Nilaparvata lugens spray test; settings: Nilaparvata lugens, in Oryza sativa, 96 h
Experimental: Nilaparvata lugens—Spray Test
as §2, with “solvents” for “solvent,”, “and” for “and the concentrate”
Rice plants (Oryza sativa) are sprayed with a preparation of the active ingredient of the desired concentration and the plants are infested with the brown planthopper (Nilaparvata lugens).
After 4 days mortality in % is determined. 100% means all planthoppers have been killed and 0% means none of the planthoppers have been killed.

[5] = test system: Aedes aegypti strain MONHEIM; experiment: Aedes aegypti test (AEDSAE surface treatment & contact assay); settings: 24 hours after contact, read-out: efficacy (mortality); for mortality at 4 mg/m2: surface concentration 4 mg/m^2, 30 minutes exposure; for mortality at 20 mg/m2: surface concentration 20 mg/m^2, 30 minutes exposure
Experimental: Aedes aegypti Test (AEDSAE Surface Treatment & Contact Assay)
(§4) Solvent: Aceton+2000 ppm rapeseed oil methyl ester (RME)
(§5) In order to produce a sufficient, active ingredient containing solution it is necessary to solve the test-compound in the solvent-mix (Acetone at 2 mg/ml/RME 2000 ppm). This solution is pipetted onto a glazed tile and after evaporation of the Acetone, adult mosquitoes of the species Aedes aegypti strain MONHEIM are placed onto the dried surface. The exposure time is 30 minutes.
(§6) Mortality in percent (%) is determined 24 hours after contact to the treated surface. 100% mortality means that all test-insects are dead, whereas 0% means that not a single insect died.

[6] = test system: Culex quinquefasciatus strain P00; experiment: Culex quinquefasciatus test (CULXFA surface treatment & contact assay); settings: 24 hours after contact, read-out: efficacy (mortality); for mortality at 4 mg/m2: surface concentration 4 mg/m^2, 30 minutes exposure; for mortality at 20 mg/m2: surface concentration 20 mg/m^2, 30 minutes exposure
Experimental: Culex quinquefasciatus Test (CULXFA Surface Treatment & Contact Assay)
as §4
as §5, with “Culex quinquefasciatus” for “Aedes aegypti”, “P00” for “MONHEIM”
as §6

[7] = test system: Anopheles funestus strain FUMOZ-R; experiment: Anopheles funestus test (ANPHFU surface treatment & contact assay); settings: 24 hours after contact, read-out: efficacy (mortality); for mortality at 4 mg/m2: surface concentration 4 mg/m^2, 30 minutes exposure; for mortality at 20 mg/m2: surface concentration 20 mg/m^2, 30 minutes exposure
Experimental: Anopheles funestus Test (ANPHFU Surface Treatment & Contact Assay)
as §4
as §5, with “Anopheles funestus” for “Aedes aegypti”, “FUMOZ-R (Hunt et al., Med Vet Entomol. 2005 September; 19(3):271-5)” for “MONHEIM”
as §6

Spodoptera frugiperda = Spodoptera frugiperda spray test; settings: in Zea mays, 168 h
Experimental: Spodoptera frugiperda—Spray Test
as §2, with “solvents” for “solvent,”, “and” for “and the concentrate”
Maize (Zea mays) leaf sections are sprayed with a preparation of the active ingredient of the desired concentration. Once dry, the leaf sections are infested with fall armyworm larvae (Spodoptera frugiperda).
After 7 days mortality in % is determined. 100% means all caterpillars have been killed and 0% means none of the caterpillars have been killed.

Row | SMILES | pest or weed control at 5 µg/cm2, 5 µg/cm2 (Ctenocephalides felis [1]) [%] | pest or weed control at 0.02 mg (Boophilus microplus) [%] | mortality at 100 ppm (Ctenocephalides felis [2]) [%] | pest or weed control at 160 µg/disc, 160 µg/well (Diabrotica balteata) [%] | mortality at 4 ppm (Myzus persicae [3]) [%] | mortality at 500 g/ha (Myzus persicae [4]) [%] | mortality at 500 g/ha (Nezara viridula) [%] | mortality at 500 g/ha (Nilaparvata lugens) [%] | mortality at 4 mg/m2 [5] [%] | mortality at 20 mg/m2 [5] [%] | mortality at 4 mg/m2 [6] [%] | mortality at 20 mg/m2 [6] [%] | mortality at 4 mg/m2 [7] [%] | mortality at 20 mg/m2 [7] [%] | mortality at 500 g/ha (Spodoptera frugiperda) [%]
1 | CC(c1ncnn1-c1ncccn1)N(CCC(F)(F)F)C(=O)c1cc(Cl)cc(S(C)(=O)=O)c1 (stereo not shown) [Example I-039] | 100 | 100 | 100 | 100 | 100 | 100 | 100 | 100 | – | – | – | – | – | – | –
2 | CC(c1ncnn1-c1ncccn1)N(CC(F)F)C(=O)c1cc(Cl)cc(S(C)(=O)=O)c1 (stereo not shown) [Example I-041] | 90 | 100 | 100 | 100 | 100 | – | 100 | 100 | 80 to 100 | 90 to 100 | 80 to 100 | 80 to 100 | 85 to 100 | 85 to 100 | –
3 | CON=C(C)c1cc(Cl)cc(C(=O)N[C@@H](C)c2ncnn2-c2ncccn2)c1 [Example I-057, 3-chloro-5-(N-methoxyethanimidoyl)-N-{(1S)-1-[1-(pyrimidin-2-yl)-1H-1,2,4-triazol-5-yl]ethyl}benzamide] | 100 | – | 100 | 80 | 100 | 90 | 100 | – | 80 to 100 | 90 to 100 | – | 80 to 100 | – | – | 100
4 | C[C@H](NC(=O)c1cc(Cl)cc(S(C)(=O)=O)c1)c1nc(C(F)(F)F)nn1-c1ncccn1 [Example I-091, 3-chloro-N-{(1S)-1-[1-(2-pyrimidinyl)-3-(trifluoromethyl)-1H-1,2,4-triazol-5-yl]ethyl}-5-(methylsulfonyl)benzamide] | 100 | – | 100 | 100 | 100 | 90 | 100 | – | 80 to 100 | 90 to 100 | 80 to 100 | 80 to 100 | – | 85 to 100 | 83
5 | C[C@H](NC(=O)c1cc(Cl)cc([S+]([O-])CC(F)(F)F)c1)c1ncnn1-c1ncccn1 (stereo partly drawn) [Example I-092, 3-chloro-N-{(1S)-1-[1-(pyrimidin-2-yl)-1H-1,2,4-triazol-5-yl]ethyl}-5-[(2,2,2-trifluoroethyl)sulfinyl]benzamide] | 80 | – | – | 100 | 100 | 100 | 100 | 100 | 80 to 100 | 90 to 100 | 80 to 100 | 80 to 100 | 85 to 100 | – | –
6 | C[C@@H](NC(=O)c1cc(Cl)cc(S(C)(=O)=O)c1)c1ncnn1-c1ncc(C(F)(F)F)cn1 [Example I-095] | 100 | – | – | 100 | 100 | 90 | 100 | – | – | – | – | – | – | – | 100
7 | Cc1cnc(-n2ncnc2[C@@H](C)NC(=O)c2cc(Cl)cc(S(C)(=O)=O)c2)nc1 [Example I-096] | – | – | – | – | 100 | 90 | 100 | – | – | – | – | – | – | – | 100
8 | Cc1cnc(-n2ncnc2[C@@H](C)NC(=O)c2cc(Cl)cc(S(=O)(=O)C(F)(F)F)c2)nc1 [Example I-099] | – | – | – | 100 | 100 | 100 | 100 | – | – | – | – | – | – | – | 100
9 | C[C@@H](NC(=O)c1csc(Cl)c1)c1ncnn1-c1ccc(C#N)cn1 [Example I-114] | – | – | – | 100 | – | 90 | – | – | – | – | – | – | – | – | –
10 | C[C@H](NC(=O)c1cc(Cl)cc(C2(C#N)CC2)c1)c1ncnn1-c1ccc(C#N)cn1 [Example I-119, 3-chloro-5-(1-cyanocyclopropyl)-N-{(1S)-1-[1-(5-cyanopyridin-2-yl)-1H-1,2,4-triazol-5-yl]ethyl}benzamide] | – | – | – | 100 | 100 | 90 | 100 | – | – | – | – | – | – | – | 100
11 | C[C@@H](NC(=O)c1cc(Cl)cc(C(C)(C)C)c1)c1ncnn1-c1ncccn1 [Example I-124] | – | – | – | 100 | – | 100 | 100 | – | – | – | – | – | – | – | –
